Results reported in paper PMC4301037, “Identification and Structure–Function Analysis of Subfamily Selective G Protein-Coupled Receptor Kinase Inhibitors” (ACS Chemical Biology, 2014).
Read-outs that look alike come from different tables or passages of the source.

Columns and labels:
human GRK2S670A = target: T1, human GRK2S670A (Homo sapiens, UniProt P25098, S670A); test: Primary DSF (differential scanning fluorimetry) inhibitor screen, GRK2; format: binding; conditions: 10 μM compound; for ΔTm, primary screen, GRK2 / ΔTm at 10 µM: 2 μM kinase, relative to DMSO control; for ΔTm at 10 µM: read-out: ΔTm, primary screen, GRK2; for rank in the primary screen, GRK2: rank ordering of compounds in primary DSF screen
T1 construct: when using full-length kinases as the receptor[37] instead of isolated kinase domains; made in house
T1 sequence (P25098 1-689 S670A): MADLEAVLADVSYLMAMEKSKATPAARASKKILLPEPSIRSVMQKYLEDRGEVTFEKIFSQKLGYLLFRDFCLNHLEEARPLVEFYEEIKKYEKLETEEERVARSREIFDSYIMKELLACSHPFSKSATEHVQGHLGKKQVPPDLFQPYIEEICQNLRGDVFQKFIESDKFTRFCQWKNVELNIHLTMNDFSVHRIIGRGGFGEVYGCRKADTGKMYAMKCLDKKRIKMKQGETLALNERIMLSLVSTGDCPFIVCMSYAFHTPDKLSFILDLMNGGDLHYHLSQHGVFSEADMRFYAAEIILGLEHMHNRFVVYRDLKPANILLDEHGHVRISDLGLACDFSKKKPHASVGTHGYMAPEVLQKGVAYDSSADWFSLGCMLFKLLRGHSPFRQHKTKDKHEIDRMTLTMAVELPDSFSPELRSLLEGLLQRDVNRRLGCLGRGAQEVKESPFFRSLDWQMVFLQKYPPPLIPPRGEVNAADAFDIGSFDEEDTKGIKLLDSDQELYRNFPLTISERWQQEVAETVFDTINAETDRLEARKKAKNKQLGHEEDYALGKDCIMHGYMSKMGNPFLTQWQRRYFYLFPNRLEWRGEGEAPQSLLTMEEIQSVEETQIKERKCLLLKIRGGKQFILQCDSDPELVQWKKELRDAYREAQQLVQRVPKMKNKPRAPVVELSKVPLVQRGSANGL

bovine GRK5 = target: T2, bovine GRK5 (Bos taurus, UniProt P43249); test: Primary DSF inhibitor screen, GRK5; format: binding; conditions: for rank in the primary screen, GRK5: rank ordering of compounds in primary DSF screen
T2 construct: when using full-length kinases as the receptor[37] instead of isolated kinase domains; made in house

GRK1 [1] = target: T3, GRK1 (Bos taurus, UniProt P28327); test: DSF retest (confirmation), GRK1; format: binding, bovine; conditions: for GRK1 Tm: 0.2 mg mL^–1 kinase; for GRK1 ΔTm: relative to intrinsic melting point of the kinase
T3 construct: Bovine GRK1_1–535, bovine and human GRK2S670A; made in house
T3 sequence (P28327 1-535): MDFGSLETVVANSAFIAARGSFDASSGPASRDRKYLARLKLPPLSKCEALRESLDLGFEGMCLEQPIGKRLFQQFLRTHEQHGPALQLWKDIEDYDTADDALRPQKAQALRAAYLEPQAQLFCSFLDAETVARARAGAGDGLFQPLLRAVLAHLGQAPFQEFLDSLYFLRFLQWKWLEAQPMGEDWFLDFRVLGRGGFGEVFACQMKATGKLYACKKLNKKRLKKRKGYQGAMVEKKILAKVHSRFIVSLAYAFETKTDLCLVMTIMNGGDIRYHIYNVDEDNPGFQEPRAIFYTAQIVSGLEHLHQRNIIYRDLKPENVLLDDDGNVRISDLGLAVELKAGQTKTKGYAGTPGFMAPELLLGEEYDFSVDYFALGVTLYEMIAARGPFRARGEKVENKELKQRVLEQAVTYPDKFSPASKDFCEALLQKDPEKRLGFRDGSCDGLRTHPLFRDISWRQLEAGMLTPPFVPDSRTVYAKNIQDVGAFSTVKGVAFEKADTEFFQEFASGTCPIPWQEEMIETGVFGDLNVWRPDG

GRK2 [2] = target: T4, GRK2 (Homo sapiens, UniProt P25098, S670A); test: DSF retest (confirmation), GRK2; format: binding; conditions: for GRK2 Tm: 0.2 mg mL^–1 kinase; for GRK2 ΔTm: relative to intrinsic melting point of the kinase
T4 construct: made in house
T4 sequence (P25098 1-689 S670A): T1 sequence (P25098 1-689 S670A)

GRK5 [3] = target: T5, GRK5 (Bos taurus, UniProt P43249); test: DSF retest (confirmation), GRK5; format: binding, bovine; conditions: for GRK5 Tm: 0.2 mg mL^–1 kinase; for GRK5 ΔTm: relative to intrinsic melting point of the kinase
T5 construct: when using full-length kinases as the receptor[37] instead of isolated kinase domains; made in house

protein kinase A (PKA) = target: T6, protein kinase A (PKA) (Mus musculus, UniProt P05132); test: DSF retest (confirmation), PKA; format: binding; conditions: for PKA Tm: 0.2 mg mL^–1 kinase; for PKA ΔTm: relative to intrinsic melting point of the kinase
T6 construct: His tag (inferred from pET15b vector and Ni-NTA column) (N); host or cells: E. coli Rosetta(DE3)pLysS
Procedure: Fourteen compounds (Figure 1a–c), including all GRK2 hits except staurosporine, and the most stabilizing pyrrolopyrimidine-containing compounds were obtained from GSK and retested using DSF on GRKs representing each vertebrate subfamily (GRK1, 2, and 5) (Table 1). […] The ability of these compounds to shift the Tm of the related AGC family kinase member protein kinase A (PKA) was also assessed (Table 1). In no case was ΔTm greater for PKA than for one of the tested GRKs. […]. There was no correlation for GRK1 (Figure 2c).
DSF was conducted using a ThermoFluor plate reader (Johnson & Johnson) in a buffer containing 20 mM HEPES, pH 7.0, 5 mM MgCl2, 2 mM DTT, and 1 mM CHAPS with 0.2 mg mL^–1 final concentration of GRK or PKA and 100 μM 1-anilinonaphthalene-8-sulfonic acid.[14]

GRK1 [4] = target: T3, GRK1; test: In vitro phosphorylation assay (tubulin, 5 μM ATP), GRK1; format: biochemical, bovine
GRK2 [5] = target: T7, GRK2 (Bos taurus, UniProt P21146, S670A); test: In vitro phosphorylation assay (tubulin, 5 μM ATP), GRK2; format: biochemical, bovine; conditions: for IC50: read-out: GRK2 log IC50 (converted)
T7 construct: made in house
T7 sequence (P21146 1-689 S670A): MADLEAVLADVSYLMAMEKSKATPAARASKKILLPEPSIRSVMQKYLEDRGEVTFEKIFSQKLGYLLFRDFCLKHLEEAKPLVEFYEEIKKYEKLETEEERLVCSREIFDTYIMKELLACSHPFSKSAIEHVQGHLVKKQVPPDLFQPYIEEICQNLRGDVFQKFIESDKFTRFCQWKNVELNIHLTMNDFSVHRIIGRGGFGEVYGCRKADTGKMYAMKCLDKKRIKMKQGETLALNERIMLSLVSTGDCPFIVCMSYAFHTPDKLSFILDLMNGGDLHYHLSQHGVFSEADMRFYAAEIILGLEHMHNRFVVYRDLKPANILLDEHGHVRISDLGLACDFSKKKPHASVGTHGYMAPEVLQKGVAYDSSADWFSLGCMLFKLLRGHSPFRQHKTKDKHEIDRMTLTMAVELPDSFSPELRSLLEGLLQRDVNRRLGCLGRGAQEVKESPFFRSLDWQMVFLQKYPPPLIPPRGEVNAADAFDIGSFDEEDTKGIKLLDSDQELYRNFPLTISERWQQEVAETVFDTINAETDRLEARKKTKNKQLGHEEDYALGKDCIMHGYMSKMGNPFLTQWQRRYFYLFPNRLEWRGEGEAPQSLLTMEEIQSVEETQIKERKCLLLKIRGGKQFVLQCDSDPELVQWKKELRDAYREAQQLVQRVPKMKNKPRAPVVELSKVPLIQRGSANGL

GRK5 [6] = target: T5, GRK5; test: In vitro phosphorylation assay (tubulin, 5 μM ATP), GRK5; format: biochemical, bovine; conditions: for IC50: read-out: GRK5 log IC50 (converted)
PKA = target: T8, PKA (Mus musculus, UniProt P05132); test: PKA inhibition assay (ADP-Glo, CREBtide, 100 μM ATP); format: biochemical
T8 construct: His tag (inferred from pET15b vector and Ni-NTA column) (N); host or cells: E. coli Rosetta(DE3)pLysS

GRK1, 2, and 5 and PKA = test: Ssel selectivity score calculated from inhibition of GRK1, 2, 5 and PKA; conditions: selectivity score from inhibition of GRK1, 2, 5 and PKA; <0.5 selective
224 kinases = test system: 224 kinases; parameters: method as in ChEMBL database; conditions: ref ChEMBL database, cited from earlier work
[7] = 10 μM compound, 2 μM kinase, relative to DMSO control, read-out: ΔTm, primary screen, GRK5
[8] = logarithm of IC50 (−3.3 corresponds to 0.5 mM, footnote c), 438 nM PKA, 100 μM ATP, CREBtide, read-out: PKA log IC50 (converted)
[9] = read-out: GRK1 log IC50 (converted)
[10] = 10 μM compound, 2 μM kinase, relative to DMSO control

T2 sequence (P43249 whole entry, the tested form may be a part): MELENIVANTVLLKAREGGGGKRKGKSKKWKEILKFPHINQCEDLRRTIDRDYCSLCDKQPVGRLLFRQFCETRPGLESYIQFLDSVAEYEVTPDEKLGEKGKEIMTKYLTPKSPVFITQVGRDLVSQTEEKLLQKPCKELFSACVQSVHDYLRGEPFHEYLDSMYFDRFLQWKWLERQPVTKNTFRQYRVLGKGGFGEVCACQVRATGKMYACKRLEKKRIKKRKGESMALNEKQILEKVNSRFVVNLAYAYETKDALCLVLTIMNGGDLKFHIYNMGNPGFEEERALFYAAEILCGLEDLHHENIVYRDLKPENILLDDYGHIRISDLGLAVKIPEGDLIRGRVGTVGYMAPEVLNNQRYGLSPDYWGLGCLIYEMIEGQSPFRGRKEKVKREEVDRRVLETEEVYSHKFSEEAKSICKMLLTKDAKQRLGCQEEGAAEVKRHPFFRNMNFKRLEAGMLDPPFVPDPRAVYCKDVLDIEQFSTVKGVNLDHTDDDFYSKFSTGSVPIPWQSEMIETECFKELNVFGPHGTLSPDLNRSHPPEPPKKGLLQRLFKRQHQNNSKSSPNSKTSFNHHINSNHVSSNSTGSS
T5 sequence (P43249 whole entry, the tested form may be a part): as above

SMILES	ΔTm, primary screen, GRK2 (human GRK2S670A) [°C]	ΔTm at 10 µM (human GRK2S670A) [°C]	ΔTm at 10 µM (bovine GRK5; [7]) [°C]	GRK1 Tm (GRK1 [1]) [°C]	GRK1 ΔTm (GRK1 [1]) [°C]	GRK2 Tm (GRK2 [2]) [°C]	GRK2 ΔTm (GRK2 [2])	GRK5 Tm (GRK5 [3]) [°C]	GRK5 ΔTm (GRK5 [3]) [°C]	PKA Tm (protein kinase A (PKA)) [°C]	PKA ΔTm (protein kinase A (PKA)) [°C]	GRK2 fold (increase in potency relative to paroxetine) (GRK2 [5]) [fold]	GRK5 fold (increase in potency relative to paroxetine) (GRK5 [6]) [fold]	IC50 (PKA; [8]) [µM]	rank in the primary screen, GRK5 (bovine GRK5; 10 μM compound)	IC50 (GRK1 [4]; [9]) [mM]	IC50 (GRK2 [5]) [µM]	IC50 (GRK5 [6]) [µM]	Ssel (GRK1, 2, and 5 and PKA)	inhibition pattern in kinase cross-screening, in words (224 kinases)	other results
CC1=C(C(=O)Nc2cc(Cl)c3[nH]ncc3c2)C(c2ccc(C(F)(F)F)cc2)CC(=O)N1 (stereo not drawn) [GSK466317A]	2.9	2.94	3.48	24.6	4.7	45.0	7.4 °C	28.0	1.3	50.6	5.2	0.040	3.2	12.6	–	–	–	–	1.001	–	rank in the primary screen, GRK2 (human GRK2S670A): 8; GRK1 fold (increase in potency relative to paroxetine) (GRK1 [4]): 0 fold; less potent than GSK180736A against GRK2 (GRK2 [5]; relative to GSK180736A): 2 log; IC50 (PKA; read-out: IC50 against PKA): < 100 µM; number of other AGC kinases inhibited by more than 50% (224 kinases; at 1 μM): more than 10
CC1=C(C(=O)Nc2ccc3[nH]ncc3c2)C(c2ccc(Cl)c(Cl)c2)CC(=O)N1 (stereo not drawn) [GSK299115A]	4.8	4.83	3.55	23.4	3.5	48.3	10.7 °C	28.1	1.3	49.5	4.1	0.40	1.6	63.1	–	> 1	3.16	–	0.360	–	rank in the primary screen, GRK2 (human GRK2S670A): 4; IC50 (PKA; read-out: IC50 against PKA): < 100 µM
CN(c1ccc(NC(=O)Nc2ccc(OC(F)(F)F)cc2)cc1)c1ccnc(Nc2cccc(S(N)(=O)=O)c2)n1 [GW806742X]	–	–	–	20.3	0.4	36.4	–1.1 °C	27.1	0.4	45.6	0.2	–	–	> 501	16	> 1	> 1000	> 1000	1.386	strong inhibition of many of the 221 kinases evaluated	ΔTm, primary screen, GRK5 (bovine GRK5; [10]): 6.5 °C; ΔTm at 10 µM (bovine GRK5; read-out: ΔTm, primary screen, GRK5, 10 μM compound, 2 μM kinase, relative to DMSO control): 6.48 °C

Further lines, with some results ahead:

ΔTm, primary screen, GRK2 (human GRK2S670A) [°C]	ΔTm at 10 µM (human GRK2S670A) [°C]	ΔTm at 10 µM (bovine GRK5; [7]) [°C]	GRK1 Tm (GRK1 [1]) [°C]	GRK1 ΔTm (GRK1 [1]) [°C]	GRK2 Tm (GRK2 [2]) [°C]	GRK2 ΔTm (GRK2 [2])	GRK5 Tm (GRK5 [3]) [°C]	GRK5 ΔTm (GRK5 [3]) [°C]	PKA Tm (protein kinase A (PKA)) [°C]	PKA ΔTm (protein kinase A (PKA)) [°C]	GRK2 fold (increase in potency relative to paroxetine) (GRK2 [5]) [fold]	GRK5 fold (increase in potency relative to paroxetine) (GRK5 [6]) [fold]	IC50 (PKA; [8]) [µM]	rank in the primary screen, GRK5 (bovine GRK5; 10 μM compound)	IC50 (GRK1 [4]; [9]) [mM]	IC50 (GRK2 [5]) [µM]	IC50 (GRK5 [6]) [µM]	SMILES	Ssel (GRK1, 2, and 5 and PKA)	inhibition pattern in kinase cross-screening, in words (224 kinases)	other results
–	–	6.71	24.8	4.9	40.4	2.8 °C	28.7	2.0	47.7	2.3	–	5.0	> 501	15	1	> 1000	25.1	CC(C)COC(=O)c1ccc2c(c1)/C(=C/Nc1ccc(S(N)(=O)=O)cc1)C(=O)N2 [GW416981X]	0.330	strong inhibition of many of the 221 kinases evaluated	GRK1 fold (increase in potency relative to paroxetine) (GRK1 [4]): 0 fold
–	3.29	6.35	–	–	42.4	4.9 °C	29.3	2.5	48.5	3.1	–	–	> 501	–	–	7.94	–	CCCN1CCC(c2ccc(Nc3nc(Nc4cc(F)ccc4C(N)=O)c4cc[nH]c4n3)c(OC)c2)CC1 [GSK1326255A]	0.586	–	IC50 (GRK1 [4]): 0.501 mM
–	–	6.93	24.8	4.9	40.0	2.5 °C	27.7	0.9	47.4	2.0	0.0063	1.3	> 501	12	> 1	200	100	Fc1cccc(COc2ccc(Nc3ncnc4cc(-c5ccc[nH]5)sc34)cc2Cl)c1 [GW693881A]	1.005	strong inhibition of many of the 221 kinases evaluated	ΔTm, primary screen, GRK5 (bovine GRK5; [10]): 6.9 °C
